The text below walks through data of US9592237B2, “Use of CB1 antagonists and/or inverse agonists for the preparation of drugs that increase motor neuron excitability” (Fundacion Del Hospital Nacional De Paraplejicos Para La …, priority 2009, dated 2017).

One data set relates to Male adult Wistar rats. The data set is described as follows: Forced run on conveyer belt (fatigue), uninjured rats. The class given is in vivo, rat. The note with it: 0.25 mg/Kg intraperitoneal; for effect on latency (Δ latency) in forced run: after injection, compared with carrier, result in words; for improvement in resistance to fatigue (decrease in latency) with respect to carrier: single injection, average. As to the method:
(§1) Animals. Male adult Wistar rats were used (300-350 g; 12 weeks old), obtained from Harlan-Interfauna Ibérica (Barcelona, Spain) kept in our animal house in a light:dark cycle of 12:12 hours, receiving food and water ad libitum. The animals were handled in accordance with the guides published in the “NIH Guide for the Care and Use of Laboratory Animals”, the principles covered by the “Guidelines for the Use of Animals in Neuroscience Research” published by the American Neuroscience Society, and the European Union Guidelines (Directive 86/609/EEC). The rats were assigned to the groups with injection of carrier or the CB1 antagonists/inverse agonists (rimonabant (SR141716A) or AM281). Five uninjured animals and 3 injured animals were used for each group.
(§2) The rats were acclimatized to the conveyer belt making them walk on the belt at low speed. The forced run protocol consisted of a first session of 15 minutes run (20 m/min, 5% inclination) followed by a second session 2 hours later (Fatigue 2 h). The same protocol was repeated the following day to study the continuance of the effects observed with the treatment (Fatigue 24 h). In order to keep the rats running throughout the study, mild electric shock was used (20 mV, 1.67 Hz) and, possible, gentle touches by the experimenter's hand. The drugs were administered immediately after the first session of the first day. The treatments consisted of a single intraperitoneal injection of SR141716A (0.25 mg/Kg), or AM281 (0.25 mg/Kg), or carrier (2.5% Bovine Serum Albumin, SIGMA, Spain, in 0.9% NaCl).
Latency was defined as the number of seconds during the experiment where the animals touched the grille located at the end of the conveyer belt. The animals that remained more than twice at the electric grille receiving discharges of over 10 seconds were considered exhausted and were returned to their cages. In this case, latency time was also considered the remaining time until the end of the protocol. The latency increase (αlatency) was calculated as the difference between the action of the rat at each time minus the values of the first session. Therefore, the negative measurements reflect a decrease in latency, and, therefore, an improvement in motor capacity.

The subject of data set [1] is healthy volunteers. In words: Adverse effects observed in subjects of the stimulation study. The class given is in vivo, human. The settings on record: single dose of 20 mg. As to the method: (§3) A neurophysiological examination was carried out before and 24 hours after administration of a single dose of 20 mg of rimonabant.
Nine healthy volunteers (average age±S.D 32.1±5.8 years) participated in the experiments using TMS (transcranial magnetic stimulation) and six participated in the experiments with electric stimulation. All subjects gave their informed written consent. The study was developed in accordance with the Declaration of Helsinki and approved by the Local Ethics Committee. The magnetic stimulation was developed using two Magstim 200 high-power magnetic stimulators (Magstim Co., Whitland, UK) connected to the Bistim Module during all measurements. A figure of 8 shaped coil was placed with an external diameter of 9 cm on the right motor cortex, in optimal position of the head to provoke a motor response in the contralateral first dorsal interosseous. The current induced a flow in the posteroanterior direction. The rest motor threshold (RMT) was defined as the stimulus of minimum intensity capable of producing a motor evoked response at rest (of around 50 μV in 50% of the 10 attempts). The active motor threshold (AMTtms) was defined as the stimulus of minimum intensity capable of producing a motor evoked response (around 200 μV in 50% of the 10 attempts) during the isometric contraction of the muscle tested at approximately 20% of the maximum. A constant voluntary contraction level was maintained by electromyogram display oscilloscope placed in front of the subject.
In six subjects we also performed electric stimulation of the motor cortex during voluntary contraction. This was performed with a Digitimer D180A digital stimulator with a time constant of 50 μs. The cathode was placed in the vertex and the anode at 7 cm laterally (anodic stimulation). We evaluate the active electric motor threshold (AMTtes) defined as the stimulus of minimum intensity capable of producing a motor evoked response of around 200 μV in 50% of ten attempts during the voluntary contraction.

Data set [2] concerns healthy volunteers. The data set is described as follows: Intracortical facilitation (ICF), paired-pulse TMS. The class given is in vivo, human. The note with it: % of response to test stimulus without conditioning stimulus; 24 hours after single dose of 20 mg; baseline 117±21%; P=0.0212; ±SD. As for the experimental part:
as §3
(§4) Using transcranial magnetic stimulation (TMS) we evaluate the electromyographic response thresholds in the first dorsal interosseous (FDI) at rest and during voluntary contraction. Using transcranial electric stimulation (TES) we evaluate the electromyographic response thresholds in the first dorsal interosseous during voluntary contraction. Transcranial electric stimulation tends to activate the axons of the corticospinal neurons in the white matter whilst magnetic stimulation activates the same fibres trans-synaptically (Hallett, 2000 Jul. 13, 406 (6792):147-50). Therefore, the response evoked electrically are not as sensitive to changes in cortical excitability as those evoked by magnetic stimulation. We also evaluate short-latency intracortical facilitation (ICF). ICF was studied using the technique of Kujirai et al. (J Physiol. 1993 Nov; 471:501-19). […]
The response facilitation conditional upon the three different ISIs studied was then averaged to give a magnified average value. The amplitude of the motor evoked potentials was expressed as percentages of amplitude of the motor evoked potentials of the tests. […]

Data set [3] has as its system healthy volunteers. The data set is described as follows: Active motor threshold by transcranial electric stimulation (TES). The settings on record: % of maximum stimulator output; 24 hours after single dose of 20 mg; six subjects; baseline 19.6±6%; P=0.0164; ±SD. The class given is in vivo, human. As to the method: (§5) The objective of the present experiments was to use transcranial magnetic and electric stimulation to test the effects of a single dose of 20 mg of rimonabant in motor cortex and spinal motor neuron excitability.
as §3
Using transcranial magnetic stimulation (TMS) we evaluate the electromyographic response thresholds in the first dorsal interosseous (FDI) at rest and during voluntary contraction. Using transcranial electric stimulation (TES) we evaluate the electromyographic response thresholds in the first dorsal interosseous during voluntary contraction. Transcranial electric stimulation tends to activate the axons of the corticospinal neurons in the white matter whilst magnetic stimulation activates the same fibres trans-synaptically (Hallett, 2000 Jul. 13, 406 (6792):147-50). Therefore, the response evoked electrically are not as sensitive to changes in cortical excitability as those evoked by magnetic stimulation. We also evaluate short-latency intracortical facilitation (ICF). ICF was studied using the technique of Kujirai et al. (J Physiol. 1993 Nov; 471:501-19).
In six subjects we also performed electric stimulation of the motor cortex during voluntary contraction. This was performed with a Digitimer D180A digital stimulator with a time constant of 50 μs. […]

The test system of data set [4] is healthy volunteers. In words: Motor thresholds by transcranial magnetic stimulation (TMS), first dorsal interosseous. The note with it: % of maximum stimulator output, 24 hours after single dose of 20 mg, ±SD. The class given is in vivo, human. As for the experimental part: as §5, §3, §4
The subject of data set [5] is rats with moderate spinal cord lesion. In words: Modified forced run on conveyer belt, rats with moderate spinal cord lesion. The class given is in vivo, rat. The note with it: 0.25 mg/Kg intraperitoneal; for improvement in resistance to fatigue (decrease in latency) with respect to carrier: 7 days after lesion, average. As for the experimental part: as §1
as §2, with “The treatments consisted of a single intraperitoneal injection of SR141716A (0.25 mg/Kg), or AM281 (0.25 mg/Kg), or carrier (2.5% Bovine Serum Albumin, SIGMA, Spain, in 0.9% NaCl).” left out
Latency was defined as the number of seconds during the experiment where the animals touched the grille located at the end of the conveyer belt. […] The latency increase (αlatency) was calculated as the difference between the action of the rat at each time minus the values of the first session. […]
6 animals were subjected to a moderate spinal cord lesion by, using the “Infinite Horizon” motorized system (Precision Systems & Instrumentation, [PSI], Lexington, Ky.). […] The hydration state was monitored as was the presence of possible infections in the animals until the end of the experiment. […]

With `Cc1c(C(=O)NN2CCOCC2)nn(-c2ccc(Cl)cc2Cl)c1-c1ccc(I)cc1` [AM281], the “effect on latency (Δ latency) in forced run” value in the data set on Male adult Wistar rats was “decreased latency”. Moreover, the “improvement in resistance to fatigue (decrease in latency) with respect to carrier” value worked out at 185 s in the data set with Male adult Wistar rats (2 hours after fatigue) and 207 s with Male adult Wistar rats (24 hours after fatigue).
Consider `Cc1c(C(=O)NN2CCCCC2)nn(-c2ccc(Cl)cc2Cl)c1-c1ccc(Cl)cc1` [rimonabant, N-(piperidin-1-yl)-5-(4-chlorophenyl)-1-(2,4-dichlorophenyl)-4-methyl-1H-pyrazole-3-carboxamide], for which, in the data set with healthy volunteers [1] (affected subjects), the “duration of agitation and anxiety, average” value worked out at 6 h. In addition, in the data set with healthy volunteers [1] (healthy volunteers), the effects on attention entry was “moderate”. Moreover, the “subjects with agitation and anxiety” value in the data set with healthy volunteers [1] (nine healthy volunteers) was “Three of the subjects experienced agitation and anxiety”. The subjects with nauseas result in the data set on healthy volunteers [1] (nine healthy volunteers, during 24 h) was “one suffered nauseas”. For the same compound, in the data set with healthy volunteers [2], the “intracortical facilitation (ICF), mean” value is on record as 150±40%. Moreover, the “active motor threshold using transcranial electric stimulation (AMTtes), mean” value with healthy volunteers [3] amounted to 17.5±6%. For the same compound, the “effect on latency (Δ latency) in forced run” value in the data set with Male adult Wistar rats is “decreased latency”; in data set [5] (2 hours after injection compared with carriers, result in words) it was “decreased latency”. Moreover, the “improvement in resistance to fatigue (decrease in latency) with respect to carrier” value in the data set on Male adult Wistar rats (2 hours after fatigue) was 75 s; in the data set with Male adult Wistar rats (24 hours after fatigue), 125 s; in data set [5] (2 hours after fatigue) it was 136 s; in data set [5] (24 hours after fatigue), 200 s. Also, the “active motor threshold using transcranial magnetic stimulation (AMTtms), mean” value in the data set on healthy volunteers [4] (baseline 39±4%, P=0.0008) amounted to 35.5±4%. The “resting motor threshold using transcranial magnetic stimulation (RMT), mean” value in the data set with healthy volunteers [4] (baseline 48±6%, P=0.0775 (not significant)) is 46.5±6%.
